# Test results from patent US20230390251A1, “METHODS OF TREATING RIBONUCLEOTIDE REDUCTASE-RELATED DISEASES WITH A RIBONUCLEOTIDE REDUCTASE INHIBITOR” (TAIHO PHARMACEUTICAL CO., LTD., priority 2020, published 2023).
# Test system: NCI-H460 cells
# Assay: Cell proliferation assay in NCI-H460 cells treated with siRNA against SLFN11
# Format: cell-based
# Settings: non-small cell lung cancer cell line NCI-H460, siSLFN11 vs siControl, 3 days of exposure
# Method: A673 cells, NCI-H460 cells and CFPAC-1 cells were transfected with 1 nM siRNAs for 24 h using Lipofectaminet®RNAiMAX Reagent (Thermo Fisher Scientific Inc.) and then re-seeded onto a 96-well plate for cell proliferation assay and caspase induction assay and onto dishes for immunoblotting analysis. siRNAs were obtained from Thermo Fisher Scientific Inc. as follows: Silencer® Select Negative Control #1 siRNA (#4390843 used as siControl), SLFN11 Silencer® Select Pre-designed siRNA (#s40703 used as siSLFN11-1, #s40704 as siSLFN11-2, and #s40702 as siSLFN11-3).
# Cell proliferation assay was performed in accordance with conventional methods, available in Hasako, et al., ibid. Briefly, cells treated with siRNAs for 24 h were plated onto 96 well plate and incubated for 24 h, followed by 3 days of exposure to the compound A. After compound exposure, viable cells were detected by using the CellTiter-Glo luminescent cell viability assay (Promega).
smiles,measurement,value
"Cc1ccc(F)c([C@@H](C)[C@H](NS(=O)(=O)c2ccc(Cl)cc2C(N)=O)c2n[nH]c(=O)o2)c1C [Compound A, 5-chloro-2-(N-((1S,2R)-2-(6-fluoro-2,3-dimethylphenyl)-1-(5-oxo-4,5-dihydro-1,3,4-oxadiazol-2-yl)propyl)sulfamoyl)benzamide]",effect of SLFN11 knockdown with siRNA on the cytotoxic effect,SLFN11 knockdown significantly suppressed the cytotoxic effect
